In patent US12049450B2, “Pyridyloxy-carboxylate derivative and preparation method therefor, herbicidal composition, and use” (Qingdao Kingagroot Chemical Compound Co., Ltd., priority 2018, dated 2024):

How the values were obtained:
Assay in all cases: Post-emergence test experiment (greenhouse pot, spray at 2-3 leaf stage)
Format in all cases: in vivo
Conditions in all cases: 1000 g/ha; post-emergence spray at 2-3 leaf stage; assessed after 3 weeks; fresh weight inhibition rate
[1] = tested on: Monochoria vaginalis
Text: (§1) The activity level standard of harmful plants destruction (i. e. growth inhibition rate) is as follows: • Level 5: the growth inhibition rate is greater than 85%; • Level 4: the growth inhibition rate is equal to or greater than 60% and less than 85%; • Level 3: the growth inhibition rate is equal to or greater than 40% and less than 60%; • Level 2: the growth inhibition rate is equal to or greater than 20% and less than 40%; • Level 1: the growth inhibition rate is equal to or greater than 5% and less than 20%; • Level 0: the growth inhibition rate is less than 5%;
(§2) The above described growth inhibition rate is fresh weight inhibition rate.
(§3) Post-emergence test experiment: Monocotyledonous and dicotyledonous weed seeds and main crop seeds (i. e. wheat, corn, rice, soybean, cotton, oilseed, millet and sorghum.) were put into a plastic pot loaded with soil. Then covered with 0.5-2 cm soil, the seeds were allowed to grow in good greenhouse environment. The test plants were treated at 2-3 leaf stage 2 weeks after sowing. The test compounds of the invention were dissolved with acetone respectively, then added with tween-80, and using 1.5 liters per hectare of an emulsible concentrate of methyl oleate as a synergist, and diluted by certain amount of water to certain concentration. The solution was sprayed to the plants with a sprayer. Then the plants were cultured for 3 weeks in the greenhouse, and the experiment result of weed controlling effect after 3 weeks was listed in tables 3-4.

[2] = tested on: Galium spurium
Text: as §1, §2, §3

[3] = tested on: Abutilon theophrasti
Text: as §1, §2, §3

Structure (SMILES) | Activity level (growth inhibition rate) Monochoria Vaginalis [1] | Activity level (growth inhibition rate) Galium spurium [2] | Activity level (growth inhibition rate) Abutilon theophrasti [3]
CCC(Oc1nc(F)c(Cl)c(N)c1Cl)C(=O)OCc1ccccc1 (stereo not drawn) [Compound 25] | 5 (Level 5: the growth inhibition rate is greater than 85%) | 5 (Level 5: the growth inhibition rate is greater than 85%) | 5 (Level 5: the growth inhibition rate is greater than 85%)
CCCC(Oc1nc(F)c(Cl)c(N)c1Cl)C(=O)SCc1ccccc1 (stereo not drawn) [Compound 26] | 5 (Level 5: the growth inhibition rate is greater than 85%) | 5 (Level 5: the growth inhibition rate is greater than 85%) | 5 (Level 5: the growth inhibition rate is greater than 85%)
Nc1c(Cl)c(F)nc(OC(C(=O)OCc2ccccc2)C2CC2)c1Cl (stereo not drawn) [Compound 28] | 5 (Level 5: the growth inhibition rate is greater than 85%) | 5 (Level 5: the growth inhibition rate is greater than 85%) | 5 (Level 5: the growth inhibition rate is greater than 85%)
COCC(Oc1nc(F)c(Cl)c(N)c1Cl)C(=O)OCc1ccccc1 (stereo not drawn) [Compound 29] | 5 (Level 5: the growth inhibition rate is greater than 85%) | 5 (Level 5: the growth inhibition rate is greater than 85%) | 5 (Level 5: the growth inhibition rate is greater than 85%)
COCCC(Oc1nc(F)c(Cl)c(N)c1Cl)C(=O)SCc1ccccc1 (stereo not drawn) [Compound 30] | 5 (Level 5: the growth inhibition rate is greater than 85%) | 5 (Level 5: the growth inhibition rate is greater than 85%) | 5 (Level 5: the growth inhibition rate is greater than 85%)
COC(C)C(Oc1nc(F)c(Cl)c(N)c1Cl)C(=O)OCc1ccccc1 (stereo not drawn) [Compound 31] | 5 (Level 5: the growth inhibition rate is greater than 85%) | 5 (Level 5: the growth inhibition rate is greater than 85%) | 5 (Level 5: the growth inhibition rate is greater than 85%)
C=CC(Oc1nc(F)c(Cl)c(N)c1Cl)C(=O)OCc1ccccc1 (stereo not drawn) [Compound 32] | 5 (Level 5: the growth inhibition rate is greater than 85%) | 5 (Level 5: the growth inhibition rate is greater than 85%) | 5 (Level 5: the growth inhibition rate is greater than 85%)
C#CC(Oc1nc(F)c(Cl)c(N)c1Cl)C(=O)SCc1ccccc1 (stereo not drawn) [Compound 33] | 5 (Level 5: the growth inhibition rate is greater than 85%) | 5 (Level 5: the growth inhibition rate is greater than 85%) | 5 (Level 5: the growth inhibition rate is greater than 85%)
Nc1c(Cl)c(F)nc(OC(F)C(=O)OCc2ccccc2)c1Cl (stereo not drawn) [Compound 34] | 5 (Level 5: the growth inhibition rate is greater than 85%) | 5 (Level 5: the growth inhibition rate is greater than 85%) | 5 (Level 5: the growth inhibition rate is greater than 85%)
Nc1c(Cl)c(F)nc(OC(Cl)C(=O)OCc2ccccc2)c1Cl (stereo not drawn) [Compound 35] | 5 (Level 5: the growth inhibition rate is greater than 85%) | 5 (Level 5: the growth inhibition rate is greater than 85%) | 5 (Level 5: the growth inhibition rate is greater than 85%)
Nc1c(Cl)c(F)nc(OC(Br)C(=O)SCc2ccccc2)c1Cl (stereo not drawn) [Compound 36] | 5 (Level 5: the growth inhibition rate is greater than 85%) | 5 (Level 5: the growth inhibition rate is greater than 85%) | 5 (Level 5: the growth inhibition rate is greater than 85%)
Nc1c(Cl)c(F)nc(OC(CCl)C(=O)OCc2ccccc2)c1Cl (stereo not drawn) [Compound 37] | 5 (Level 5: the growth inhibition rate is greater than 85%) | 5 (Level 5: the growth inhibition rate is greater than 85%) | 5 (Level 5: the growth inhibition rate is greater than 85%)
Nc1c(Cl)c(F)nc(OC(CF)C(=O)SCc2ccccc2)c1Cl (stereo not drawn) [Compound 38] | 5 (Level 5: the growth inhibition rate is greater than 85%) | 5 (Level 5: the growth inhibition rate is greater than 85%) | 5 (Level 5: the growth inhibition rate is greater than 85%)
Nc1c(Cl)c(F)nc(OC(C(=O)OCc2ccccc2)C(F)F)c1Cl (stereo not drawn) [Compound 39] | 5 (Level 5: the growth inhibition rate is greater than 85%) | 5 (Level 5: the growth inhibition rate is greater than 85%) | 5 (Level 5: the growth inhibition rate is greater than 85%)
Nc1c(Cl)c(F)nc(OC(CCCl)C(=O)OCc2ccccc2)c1Cl (stereo not drawn) [Compound 40] | 5 (Level 5: the growth inhibition rate is greater than 85%) | 5 (Level 5: the growth inhibition rate is greater than 85%) | 5 (Level 5: the growth inhibition rate is greater than 85%)
Nc1c(Cl)c(F)nc(OC(CC(F)(F)F)C(=O)SCc2ccccc2)c1Cl (stereo not drawn) [Compound 42] | 5 (Level 5: the growth inhibition rate is greater than 85%) | 5 (Level 5: the growth inhibition rate is greater than 85%) | 5 (Level 5: the growth inhibition rate is greater than 85%)
Nc1c(Cl)c(F)nc(OC(N)C(=O)OCc2ccccc2)c1Cl (stereo not drawn) [Compound 45] | 5 (Level 5: the growth inhibition rate is greater than 85%) | 5 (Level 5: the growth inhibition rate is greater than 85%) | 5 (Level 5: the growth inhibition rate is greater than 85%)
CSC(Oc1nc(F)c(Cl)c(N)c1Cl)C(=O)OCc1ccccc1 (stereo not drawn) [Compound 47] | 5 (Level 5: the growth inhibition rate is greater than 85%) | 5 (Level 5: the growth inhibition rate is greater than 85%) | 5 (Level 5: the growth inhibition rate is greater than 85%)
Nc1c(Cl)c(F)nc(OC(CO)C(=O)OCc2ccccc2)c1Cl (stereo not drawn) [Compound 48] | 5 (Level 5: the growth inhibition rate is greater than 85%) | 5 (Level 5: the growth inhibition rate is greater than 85%) | 5 (Level 5: the growth inhibition rate is greater than 85%)
Nc1c(Cl)c(F)nc(OC(C(=O)OCc2ccccc2)[N+](=O)[O-])c1Cl (stereo not drawn) [Compound 49] | 5 (Level 5: the growth inhibition rate is greater than 85%) | 5 (Level 5: the growth inhibition rate is greater than 85%) | 5 (Level 5: the growth inhibition rate is greater than 85%)
Nc1c(Cl)c(F)nc(OC(C=O)C(=O)OCc2ccccc2)c1Cl (stereo not drawn) [Compound 51] | 5 (Level 5: the growth inhibition rate is greater than 85%) | 5 (Level 5: the growth inhibition rate is greater than 85%) | 5 (Level 5: the growth inhibition rate is greater than 85%)
COC(=O)C(Oc1nc(F)c(Cl)c(N)c1Cl)C(=O)OCc1ccccc1 (stereo not drawn) [Compound 52] | 5 (Level 5: the growth inhibition rate is greater than 85%) | 5 (Level 5: the growth inhibition rate is greater than 85%) | 5 (Level 5: the growth inhibition rate is greater than 85%)
Nc1c(Cl)c(F)nc(OC(C(=O)SCc2ccccc2)c2ccoc2)c1Cl (stereo not drawn) [Compound 55] | 5 (Level 5: the growth inhibition rate is greater than 85%) | 5 (Level 5: the growth inhibition rate is greater than 85%) | 5 (Level 5: the growth inhibition rate is greater than 85%)
Nc1c(Cl)c(F)nc(OC(C(=O)OCc2ccccc2)c2cscn2)c1Cl (stereo not drawn) [Compound 56] | 5 (Level 5: the growth inhibition rate is greater than 85%) | 5 (Level 5: the growth inhibition rate is greater than 85%) | 5 (Level 5: the growth inhibition rate is greater than 85%)
